Patent publication US5952511A, “Indolin-2-one derivatives” (Chugai Seiyaku Kabushiki Kaisha, priority 1993, dated 1999)

What was measured:
gastric acid secretion [1] = settings: in words; cited from earlier work
gastrin receptors = settings: in words; cited from earlier work
CCK-B receptors = settings: in words; cited from earlier work
gastric acid secretion [2] = assay: Inhibitory Activity on Gastric Acid Secretion in Pylorus Ligated Rats (Test Example 2); format: in vivo, rat (Sprague-Dawley, male); settings: Rattus norvegicus, intraduodenal, 10 mg/kg, i.d., 4 h
Method: Inhibitory Activity on Gastric Acid Secretion in Pyrolus Ligated Rats
Sprague-Dawley male rats weighing about 200 g were deprived of food for 24 hours while allowed water ad libitum. The abdomen was opened under anesthesia with ethyl ether, the pyrolus ligated, and the abdomen closed. The rats were deprived of food and water for 4 hours until they were surcrified with ethyl ether. The stomach was removed, and gastric juice was collected and measured. The gastric juice was centrifuged at 3000 rpm, and the supernatant was titrated up to pH 7.0 with 0.1N NaOH solution to obtain the acidity of the gastric juice. The amount of the gastric acid output was calculated by multiplying the gastric juice volume by the acidity, and the percent inhibition of acid secretion was obtained according to the following equation. A test compound, suspended in a 3% gum arabic solution, was administered intraduodenally at a dose of 2 ml/kg immediately after the pyrolus ligation.
Inhibition (%)=[(Average amount of gastric acid output in control group--Average amount of gastric acid output in test group)/Average amount of gastric acid secreted […]]×100

[3] = molecular target: T1, CCK-B receptors (rat cerebral cortex) (Rattus norvegicus, UniProt P30553); assay: CCK-B Receptor Binding Test in Rat Cerebral Cortex (Test Example 3); set-up: species or system rat (Sprague-Dawley, male); settings: inhibition of specific 125I-CCK-8 sulfated binding (15 pM), 25° C., 120 min
T1 construct: Cerebral cortex was minced in the same buffer, and homogenized with Polytron; from tissue; host or cells: cerebral cortex membrane fraction of Sprague-Dawley male rats
T1 sequence (P30553 1-452): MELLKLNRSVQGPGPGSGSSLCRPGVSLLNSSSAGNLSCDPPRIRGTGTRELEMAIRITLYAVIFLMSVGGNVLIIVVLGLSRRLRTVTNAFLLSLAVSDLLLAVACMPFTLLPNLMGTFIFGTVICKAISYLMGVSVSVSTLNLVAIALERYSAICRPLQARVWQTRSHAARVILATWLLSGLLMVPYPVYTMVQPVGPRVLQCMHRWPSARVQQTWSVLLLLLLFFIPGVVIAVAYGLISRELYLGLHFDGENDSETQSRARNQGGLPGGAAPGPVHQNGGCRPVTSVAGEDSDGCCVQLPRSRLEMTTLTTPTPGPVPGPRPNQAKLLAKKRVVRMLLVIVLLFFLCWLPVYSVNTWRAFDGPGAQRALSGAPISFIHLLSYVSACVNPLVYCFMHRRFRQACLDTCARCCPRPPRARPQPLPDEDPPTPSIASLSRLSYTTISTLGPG
Method: CCK-B Receptor Binding Test in Rat Cerebral Cortex
A rat cortical membrane fraction was prepared in accordance with the method of Chang, et al., Proc. Natl. Acad. Sci., U.S.A., 83, 4923 (1986). Sprague-Dawley male rats were sucrified and the brains were removed and immersed in a 50 mM Tris-HCl buffer (pH 7.4) under ice-cooling, and the cortex was dissected. Cerebral cortex was minced in the same buffer, and homogenized with Polytron. The homogenate was centrifuged at 2,500 g, and the supernatant was further centrifuged at 50,000 g. The pellet was resuspended in a reaction buffer solution (10 mM HEPES, 5 mM MgCl2, 1 mM EGTA, 130 mM NaCl; pH 6.5).
To 150 μl of the resulting rat cerebral cortex suspension were added 20 μl of ^125 I-CCK-8 sulfated (final concentration: 15 pM) and 10 μl of a test compound or a solvent (for total binding) or 1 μM CCK-8 sulfated (for nonspecific binding), and the reaction buffer solution was added there to make 1 ml. The reaction mixture was incubated at 25° C. for 120 minutes, followed by filtration through a GF/B filter (produced by Whatman). The radio-activity of the membrane fraction adsorbed onto the filter was measured with a gamma-counter.
The specific binding to CCK-B receptors was obtained from a difference between the total binding and the nonspecific binding. The IC50 of the test compound in inhibition of specific binding was calculated.

[4] = molecular target: T2, gastrin receptors (guinea pig gastric glands) (Cavia porcellus, UniProt H0VZC5); assay: Gastrin Receptor Binding Test in Guinea Pig Gastric Glands (Test Example 1); set-up: species or system guinea pig (Hartley, male); settings: inhibition of specific 125I-gastrin I human binding (22.5 pM), 25° C., 45 min
T2 construct: The gastric glands were isolated from the tissue with a pipette; from tissue; host or cells: isolated gastric glands from gastric mucosa of Hartley male guinea pigs
T2 sequence (H0VZC5 1-426): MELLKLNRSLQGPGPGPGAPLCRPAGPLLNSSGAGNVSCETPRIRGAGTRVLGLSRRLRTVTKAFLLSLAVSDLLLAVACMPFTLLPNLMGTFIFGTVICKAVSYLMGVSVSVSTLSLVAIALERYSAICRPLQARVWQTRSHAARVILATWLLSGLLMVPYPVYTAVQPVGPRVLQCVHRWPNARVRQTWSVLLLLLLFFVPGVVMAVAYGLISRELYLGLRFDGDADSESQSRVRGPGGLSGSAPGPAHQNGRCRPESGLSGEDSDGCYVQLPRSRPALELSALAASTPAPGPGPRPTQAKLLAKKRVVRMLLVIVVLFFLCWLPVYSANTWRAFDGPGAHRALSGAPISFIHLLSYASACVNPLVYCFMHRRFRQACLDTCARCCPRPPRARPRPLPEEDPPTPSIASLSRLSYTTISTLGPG
Method: Gastrin Receptor Binding Test in Guinea Pig Gastric Glands
Preparation of Gastric Glands:
Guinea pig gastric glands were prepared according to the method of Chang, et al., Biochem. Biophys. Res. Commun., 134, 895 (1986). The gastric mucosa of a Hartley male guinea pig was peeled off. After washing, the mucosa was minced with scissors in buffer A (Eagle's MEM containing 2 mM L-glutamine and 25 mM HEPES; pH 7.4). After washing, the minced tissue was incubated in buffer A containing 0.025% collagenase, 0.01% soy bean trypsin inhibitor, and 0.1% BSA at 37° C. for 60 minutes under 95% O2 and 5% CO2. The gastric glands were isolated from the tissue with a pipette, washed twice with buffer A, and filtered through a mesh. Then, the gastric glands were obtained by centrifugation.
Guinea pig gastric glands were resuspended in buffer B (Hank's solution containing 10 mM HEPES and 0.2% BSA; pH 7.4) (10 ml of buffer B per guinea pig).
To 200 μl of the suspension containing the resuspended isolated gastric glands were added 20 μl of ^125 I-gastrin I human (final concentration: 22.5 pM). Then, 10 μl of a test compound or a solvent (for total binding) or 10 μM Pentagastrin (for nonspecific binding), and buffer B was added there to make a total volume of 1 ml. The reaction mixture was incubated at 25° C. for 45 minutes and then centrifuged at 12000 g. The supernatant was removed by suction, and the radioactivity of the isolated gastric glands was measured with a gamma-counter.
The specific binding of gastrin to gastrin receptors was obtained from a difference between the total binding and the nonspecific binding. The IC50 of the test compound in inhibition of specific binding was calculated.

| IC50 [3] [nM] | IC50 [4] [nM] | SMILES | inhibitory activity on gastric acid secretion when administered in vivo (gastric acid secretion [1]) | binding activity to gastrin receptors (gastrin receptors) | binding activity to CCK-B receptors (CCK-B receptors) | inhibition in vivo at 10 mg/kg (gastric acid secretion [2]) [%] |
| --- | --- | --- | --- | --- | --- | --- |
| – | – | Cc1cccc(NC(=O)N[C@@H]2N=C(c3ccccc3)c3ccccc3N(C)C2=O)c1 [L-365,260] | do not exert powerful inhibitory activity on gastric acid secretion | high binding activity to gastrin receptors | – | – |
| – | – | CCCN(CCC)C(=O)C(CCC(=O)O)NC(=O)c1ccccc1 (stereo not shown) [Proglumide] | – | very weak | very weak | – |
| 1.9 | 1.5 | CCOC(CN1C(=O)C(CC(=O)Nc2ccc(OC)nc2)(NC(=O)Nc2ccc(C)cc2)c2ccccc21)OCC (racemic) [Example 143, (RS)-1-(2,2-Diethoxtyethyl)-3-((2-methoxypyrido-5-yl)aminocarbonylmethyl)-3-(N'-(4-methylphenyl)ureido)indolin-2-one] | – | – | – | 64 |
| 0.14 | 1.6 | CCOC(CN1C(=O)C(CC(=O)Nc2ccc(C)cn2)(NC(=O)Nc2ccc(C)cc2)c2ccccc21)OCC (single isomer, unassigned; (+)) [Example 179] | – | – | – | 63 |
| 0.39 | 3.6 | CCOC(CN1C(=O)C(CC(=O)Nc2cccc(OC)c2)(NC(=O)Nc2ccc(C)cc2)c2ccccc21)OCC (racemic) [Example 129, (RS)-1-(2,2-Diethoxyethyl)-3-((3-methoxyphenyl)aminocarbonylmethyl)-3-(N'-(4-methylphenyl)ureido)indolin-2-one] | – | – | – | 71 |
| 0.18 | 2.9 | CCOC(CN1C(=O)C(CC(=O)Nc2ccc(C)c(C)c2)(NC(=O)Nc2ccc(C)cc2)c2ccccc21)OCC (racemic) [Example 122, (RS)-1-(2,2-Diethoxyethyl)-3-((3,4-dimethylphenyl)aminocarbonylmethyl)-3-(N'-(4-methylphenyl)ureido)indolin-2-one] | – | – | – | 62 |
| 0.64 | 2.4 | CCOC(CN1C(=O)C(CC(=O)Nc2ccc(Cl)cc2)(NC(=O)Nc2ccc(C)cc2)c2ccccc21)OCC (racemic) [Example 114, (RS)-3-((4-Chlorophenyl)aminocarbonylmethyl)-1-(2,2-diethoxyethyl)-3-(N'-(4-methylphenyl)ureido)indolin-2-one] | – | – | – | 56 |
| 0.78 | 2.2 | CCOC(CN1C(=O)C(CC(=O)Nc2ccc(OC)nc2)(NC(=O)Nc2ccc(C)cc2)c2ccccc21)OCC (single isomer, unassigned; (+)) [Example 181, (+)-1-(2,2-Diethoxyethyl)-3-((2-methoxypyrido-5-yl)aminocarbonylmethyl)-3-(N'-(4-methylphenyl)ureido)indolin-2-one] | – | – | – | 69 |
| 0.1 | 0.68 | CCOC(CN1C(=O)C(CC(=O)Nc2ccc(C)cn2)(NC(=O)Nc2cccc(OC)c2)c2ccccc21)OCC (single isomer, unassigned; (+)) [Example 190, (+)-1-(2,2-Diethoxyethyl)-3-(N'-(3-methoxyphenyl)ureido)-3-((5-methylpyrido-2-yl)aminocarbonylmethyl)indolin-2-one] | – | – | – | 70 |
